{
  "source": "paper PMC4984525",
  "about": "(Cancer, 2011)",
  "origin": "cited, not measured here",
  "tested_on": "patients with resistant ovarian cancer",
  "details": "preliminary results of a Phase 2 trial; cited from earlier work",
  "data": [
    {"smiles": "Cc1ccc(C(=O)N(CCCN)[C@@H](c2nc3cc(Cl)ccc3c(=O)n2Cc2ccccc2)C(C)C)cc1", "note": "[ispinesib]", "values": [
      {"measurement": "clinical activity", "result": "has clinical activity"}
    ]}
  ]
}
